Values quoted from earlier work in patent US11707436B2, “Methods of treating inflammatory disorders and global inflammation with compositions comprising phospholipid nanoparticle encapsulations of NSAIDS” (NanoSphere Health Sciences, LLC, priority 2014, dated 2023).
≈ marks a conversion by molar mass, not a printed value.

How the values were obtained:
[1] = system: NF-KappaB; conditions: highly variable efficacy
[2] = for Solubility of NSAIDs at 25 C: source drugbank.ca
[3] = system: NF-KappaB; conditions: for inhibition of NF-kappaB activity: concentrations comparable to those used in therapy; for inhibition of activation of the NF-KappaB pathway: concentrations measured in serum of treated patients
[4] = system: NF-Kappa B
[5] = clinical studies
[6] = after removal of lower third molars
[7] = renal colic

CC(=O)Oc1ccccc1C(=O)O [Acetylsalicylic acid]
inhibition of TNF-induced NF-KappaB activation [1]: inhibited
Solubility of NSAIDs at 25 C [2]: 3300 µg/mL
inhibition of NF-kappaB activity [3]: effectively inhibit
inhibition of activation of the NF-KappaB pathway [3]: inhibit activation

C=C(C)[C@@H]1CCC(C)=C[C@H]1c1c(O)cc(CCCCC)cc1O [Cannabidiol]
solubility in water ([2]; words only): insolubility in water
NF-Kappa B activation, pro-inflammatory cytokines and mediators (TNF-alpha, iNOS) [4]: attenuate

O=C(O)Cc1ccccc1Nc1c(Cl)cccc1Cl [Diclofenac]
Solubility of NSAIDs at 25 C [2]: 50000 µg/mL

CC(C)Cc1ccc(C(C)C(=O)O)cc1 (centres unmarked) [Ibuprofen]
inhibition of TNF-induced NF-KappaB activation [1]: inhibited
Solubility of NSAIDs at 25 C [2]: 21000 µg/mL
solubility water at 25° C [2]: 21000 µg/mL (≈ 102 mM)
inhibition of NF-kappaB activity [3]: effectively inhibit

COc1ccc2c(c1)c(CC(=O)O)c(C)n2C(=O)c1ccc(Cl)cc1 [Indomethacin]
concentrations in CSF [5]: minimal concentrations
Solubility of NSAIDs at 25 C [2]: 937 µg/mL

CC(C(=O)O)c1cccc(C(=O)c2ccccc2)c1 (centres unmarked) [Ketoprofen]
concentrations in CSF [5]: minimal concentrations

COc1ccc2cc([C@H](C)C(=O)O)ccc2c1 [Naproxen]
inhibition of TNF-induced NF-KappaB activation [1]: inhibited
inhibition of NF-kappaB activity [3]: effectively inhibit

O=C(O)c1ccccc1O [Salicylic acid]
Solubility of NSAIDs at 25 C [2]: 3000 µg/mL
solubility water at 25° C [2]: 3000 µg/mL (≈ 21.7 mM)

COc1cc(/C=C/C(=O)CC(=O)/C=C/c2ccc(O)c(OC)c2)ccc1O [curcumin]
inhibition of TNF-induced NF-KappaB activation [1]: inhibited

CC(C(=O)O)c1ccc(N2CC=CC2)c(Cl)c1 (centres unmarked) [piroprofen]
concentrations in CSF [5]: minimal concentrations

CN1C(C(=O)Nc2ccccn2)=C(O)c2ccccc2S1(=O)=O [piroxicam]
pain scores, oral versus sublingual route [6]: no significant differences
efficacy of sublingual versus IM injection [7]: as effective as the IM injection

Oc1ccc(C=Cc2cc(O)cc(O)c2)cc1 [resveratrol]
inhibition of TNF-induced NF-KappaB activation [1]: inhibited

O=C([O-])c1ccccc1O.[Na+] [salicylate, sodium salicylate]
inhibition of activation of the NF-KappaB pathway [3]: inhibit activation

CC1=C(CC(=O)O)c2cc(F)ccc2/C1=C\c1ccc([S+](C)[O-])cc1 (centres unmarked) [sulindac]
inhibition of TNF-induced NF-KappaB activation [1]: inhibited

CC/C(=C(\c1ccccc1)c1ccc(OCCN(C)C)cc1)c1ccccc1 [tamoxifen]
inhibition of TNF-induced NF-KappaB activation [1]: inhibited
